target: T1, IRAK4 (Homo sapiens, UniProt Q9NWZ3); assay: Western blot degradation of IRAK4; assay type: cell-based; conditions: hPBMC Cell; 24 hours
T1 construct: expression of target proteins in cells; endogenous in cells
T1 sequence (Q9NWZ3 1-460): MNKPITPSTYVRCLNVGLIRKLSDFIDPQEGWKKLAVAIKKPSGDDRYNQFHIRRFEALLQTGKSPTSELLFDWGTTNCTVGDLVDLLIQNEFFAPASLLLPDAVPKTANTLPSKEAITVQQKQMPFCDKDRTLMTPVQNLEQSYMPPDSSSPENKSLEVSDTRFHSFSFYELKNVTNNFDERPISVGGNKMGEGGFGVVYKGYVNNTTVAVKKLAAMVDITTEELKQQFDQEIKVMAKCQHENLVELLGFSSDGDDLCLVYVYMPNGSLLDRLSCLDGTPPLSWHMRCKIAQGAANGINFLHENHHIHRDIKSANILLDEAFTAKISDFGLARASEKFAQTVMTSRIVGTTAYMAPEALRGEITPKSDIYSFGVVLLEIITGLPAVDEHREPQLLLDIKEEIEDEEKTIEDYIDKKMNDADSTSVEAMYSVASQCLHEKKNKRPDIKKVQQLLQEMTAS
Method: Conventional Western blot assay was performed to evaluate the effects of the compounds of the present disclosure on the expression of target proteins in cells.
(1) Cell Seeding and Protein Harvesting: The selected cells were processed according to the cell seeding procedure and protein harvesting procedure in Table II-2.
(2) To the collected supernatant, 5×SDS sample loading buffer was added, followed by denaturation at 95 °C for 5 minutes. The denatured samples were then separated by SDS-PAGE electrophoresis on a polyacrylamide gel. Proteins were transferred to a nitrocellulose membrane (0.45 μm NC membrane), blocked with blocking buffer at room temperature for 1 hour, and subjected to antibody incubation and development procedures according to the antibody manufacturer's instructions (Cell Signaling Technology).
Half-Maximal Degradation Concentration value (the drug concentration required for degrading proteins by 50%, abbreviated as DC50) reads method: comparing the grayscale values of Western blot bands from drug-treated samples with those from blank DMSO-treated controls, and identifying the drug concentration range at which the grayscale value is half that of the DMSO-treated control bands.
DC50 values can be calculated using ImageJ software to measure grayscale values of Western blot bands from drug-treated samples. The concentration-response curve is fitted to estimate the drug concentration corresponding to half the grayscale value.
Target protein remaining (%) refers to the percentage of target protein remaining in cells after treatment with protein degrader compounds.
Calculation method for target protein remaining (%): Use ImageJ software to measure grayscale values of Western blot bands from drug (protein degrader)-treated samples. The grayscale value of drug-treated bands is divided by that of internal control protein bands, and the resulting quotient is normalized to obtain the relative percentage of remaining target protein after protein degrader treatment.
Target protein degradation rate (%)=1−target protein remaining (%).

Row | Structure (SMILES) | Degradation of substrate protein IRAK4 (substrate protein remaining %)
1 | O=C1CCN(N2C(=O)c3ccc(N4CC5CC(C4)N5C[C@H]4CC[C@H](n5cc(NC(=O)c6cnn7ccc(N8C[C@H]9C[C@@H]8CO9)nc67)c(C(F)F)n5)CC4)cc3C2=O)C(=O)N1 [GT-05822, 5-((1R,4R)-2-oxa-5-azabicyclo[2.2.1]heptan-5-yl)-N-(3-(difluoromethyl)-1-((1r,4R)-4-((3-(2-(2,4-dioxotetrahydropyrimidin-1(2H)-yl)-1,3-dioxoisoindolin-5-yl)-3,6-diazabicyclo[3.1.1]heptan-6-yl)methyl)cyclohexyl)-1H-pyrazol-4-yl)pyrazolo[1,5-a]pyrimidine-3-carboxamide] | A (0%≤substrate protein remaining %≤80%)
2 | O=C1CCN(N2C(=O)c3ccc(N4CCN(C[C@H]5CC[C@H](n6cc(NC(=O)c7cnn8ccc(N9C[C@H]%10C[C@@H]9CO%10)nc78)c(C(F)F)n6)CC5)CC4)c(F)c3C2=O)C(=O)N1 [GT-05827, 5-((1R,4R)-2-oxa-5-azabicyclo[2.2.1]heptan-5-yl)-N-(3-(difluoromethyl)-1-((1r,4R)-4-((4-(2-(2,4-dioxotetrahydropyrimidin-1(2H)-yl)-4-fluoro-1,3-dioxoisoindolin-5-yl)piperazin-1-yl)methyl)cyclohexyl)-1H-pyrazol-4-yl)pyrazolo[1,5-a]pyrimidine-3-carboxamide] | A (0%≤substrate protein remaining %≤80%)
3 | COc1cc2nn([C@H]3CC[C@H](CN4CCN(c5ccc6c(c5)C(=O)N(N5CCC(=O)NC5=O)C6=O)CC4)CC3)cc2cc1NC(=O)c1cccc(C(F)(F)F)n1 [GT-08647, N-(2-((1r,4r)-4-((4-(2-(2,4-dioxotetrahydropyrimidin-1(2H)-yl)-1,3-dioxoisoindolin-5-yl)piperazin-1-yl)methyl)cyclohexyl)-6-methoxy-2H-indazol-5-yl)-6-(trifluoromethyl) picolinamide] | A (0%≤substrate protein remaining %≤80%)
4 | COc1cc2nn([C@H]3CC[C@H](CN4C5CCC4CN(c4ccc6c(c4)C(=O)N(N4CCC(=O)NC4=O)C6=O)C5)CC3)cc2cc1NC(=O)c1cccc(C(F)(F)F)n1 [GT-08654, N-(2-((1r,4r)-4-((3-(2-(2,4-dioxotetrahydropyrimidin-1(2H)-yl)-1,3-dioxoisoindolin-5-yl)-3,8-diazabicyclo[3.2.1]octan-8-yl)methyl)cyclohexyl)-6-methoxy-2H-indazol-5-yl)-6-(trifluoromethyl) picolinamide] | A (0%≤substrate protein remaining %≤80%)
5 | COc1cc2nn([C@H]3CC[C@H](CN4CCN(c5cccc6c5C(=O)N(N5CCC(=O)NC5=O)C6=O)CC4)CC3)cc2cc1NC(=O)c1cccc(C(F)(F)F)n1 [GT-08655, N-(2-((1r,4r)-4-((4-(2-(2,4-dioxotetrahydropyrimidin-1(2H)-yl)-1,3-dioxoisoindolin-4-yl)piperazin-1-yl)methyl)cyclohexyl)-6-methoxy-2H-indazol-5-yl)-6-(trifluoromethyl) picolinamide] | A (0%≤substrate protein remaining %≤80%)
6 | COc1cc2nn([C@H]3CC[C@H](CN4CCN(c5ccc6c(c5F)C(=O)N(N5CCC(=O)NC5=O)C6=O)CC4)CC3)cc2cc1NC(=O)c1cccc(C(F)(F)F)n1 [GT-08656, N-(2-((1r,4r)-4-((4-(2-(2,4-dioxotetrahydropyrimidin-1(2H)-yl)-4-fluoro-1,3-dioxoisoindolin-5-yl)piperazin-1-yl)methyl)cyclohexyl)-6-methoxy-2H-indazol-5-yl)-6-(trifluoromethyl) picolinamide] | A (0%≤substrate protein remaining %≤80%)
7 | COc1cc2nn([C@H]3CC[C@H](CN4CCN(c5cc(F)c6c(c5)C(=O)N(N5CCC(=O)NC5=O)C6=O)CC4)CC3)cc2cc1NC(=O)c1cccc(C(F)(F)F)n1 [GT-08657, N-(2-((1r,4r)-4-((4-(2-(2,4-dioxotetrahydropyrimidin-1(2H)-yl)-7-fluoro-1,3-dioxoisoindolin-5-yl)piperazin-1-yl)methyl)cyclohexyl)-6-methoxy-2H-indazol-5-yl)-6-(trifluoromethyl) picolinamide] | A (0%≤substrate protein remaining %≤80%)
8 | COc1cc2nn([C@H]3CC[C@H](CN4CCN(C5CCN(c6ccc7c(c6)C(=O)N(N6CCC(=O)NC6=O)C7=O)CC5)CC4)CC3)cc2cc1NC(=O)c1cccc(C(F)(F)F)n1 [GT-08658, N-(2-((1r,4r)-4-((4-(1-(2-(2,4-dioxotetrahydropyrimidin-1(2H)-yl)-1,3-dioxoisoindolin-5-yl)piperidin-4-yl)piperazin-1-yl)methyl)cyclohexyl)-6-methoxy-2H-indazol-5-yl)-6-(trifluoromethyl) picolinamide] | A (0%≤substrate protein remaining %≤80%)
9 | COc1cc2nn([C@H]3CC[C@H](CN4CC5CCC4CN5c4ccc5c(c4)C(=O)N(N4CCC(=O)NC4=O)C5=O)CC3)cc2cc1NC(=O)c1cccc(C(F)(F)F)n1 (some centres unmarked) [GT-08660, N-(2-((1r,4r)-4-((5-(2-(2,4-dioxotetrahydropyrimidin-1(2H)-yl)-1,3-dioxoisoindolin-5-yl)-2,5-diazabicyclo[2.2.2]octan-2-yl)methyl)cyclohexyl)-6-methoxy-2H-indazol-5-yl)-6-(trifluoromethyl) picolinamide] | A (0%≤substrate protein remaining %≤80%)
10 | COc1cc2nn([C@H]3CC[C@H](CN4C[C@@H]5C[C@H]4CN5c4ccc5c(c4)C(=O)N(N4CCC(=O)NC4=O)C5=O)CC3)cc2cc1NC(=O)c1cccc(C(F)(F)F)c1 [GT-08662, N-(2-((1S,4r)-4-(((1S,4S)-5-(2-(2,4-dioxotetrahydropyrimidin-1(2H)-yl)-1,3-dioxoisoindolin-5-yl)-2,5-diazabicyclo[2.2.1]heptan-2-yl)methyl)cyclohexyl)-6-methoxy-2H-indazol-5-yl)-3-(trifluoromethyl)benzamide] | A (0%≤substrate protein remaining %≤80%)
11 | COc1cc2nn([C@H]3CC[C@H](CN4C5CC4CN(c4ccc6c(c4)C(=O)N(N4CCC(=O)NC4=O)C6=O)C5)CC3)cc2cc1NC(=O)c1cccc(C(F)(F)F)c1 [GT-08666, N-(2-((1r,4r)-4-((3-(2-(2,4-dioxotetrahydropyrimidin-1(2H)-yl)-1,3-dioxoisoindolin-5-yl)-3,6-diazabicyclo[3.1.1]heptan-6-yl)methyl)cyclohexyl)-6-methoxy-2H-indazol-5-yl)-3-(trifluoromethyl)benzamide] | A (0%≤substrate protein remaining %≤80%)
12 | COc1cc2nn([C@H]3CC[C@H](CN4CCN(c5cc(F)c6c(c5)C(=O)N(N5CCC(=O)NC5=O)C6=O)CC4)CC3)cc2cc1NC(=O)c1cccc(C(F)(F)F)c1 [GT-08670, N-(2-((1r,4r)-4-((4-(2-(2,4-dioxotetrahydropyrimidin-1(2H)-yl)-7-fluoro-1,3-dioxoisoindolin-5-yl)piperazin-1-yl)methyl)cyclohexyl)-6-methoxy-2H-indazol-5-yl)-3-(trifluoromethyl)benzamide] | A (0%≤substrate protein remaining %≤80%)
13 | COc1cc2nn([C@H]3CC[C@H](CN4CCN(C5CCN(c6ccc7c(c6)C(=O)N(N6CCC(=O)NC6=O)C7=O)CC5)CC4)CC3)cc2cc1NC(=O)c1cccc(C(F)(F)F)c1 [GT-08671, N-(2-((1r,4r)-4-((4-(1-(2-(2,4-dioxotetrahydropyrimidin-1(2H)-yl)-1,3-dioxoisoindolin-5-yl)piperidin-4-yl)piperazin-1-yl)methyl)cyclohexyl)-6-methoxy-2H-indazol-5-yl)-3-(trifluoromethyl)benzamide] | A (0%≤substrate protein remaining %≤80%)
14 | COc1cc2nn([C@H]3CC[C@H](CN4CCN(C5CCN(c6ccc7c(c6)C(=O)N(N6CCC(=O)NC6=O)C7=O)CC5(F)F)CC4)CC3)cc2cc1NC(=O)c1cccc(C(F)(F)F)c1 (some centres unmarked) [GT-08672, N-(2-((1r,4r)-4-((4-(1-(2-(2,4-dioxotetrahydropyrimidin-1(2H)-yl)-1,3-dioxoisoindolin-5-yl)-3,3-difluoropiperidin-4-yl)piperazin-1-yl)methyl)cyclohexyl)-6-methoxy-2H-indazol-5-yl)-3-(trifluoromethyl)benzamide] | A (0%≤substrate protein remaining %≤80%)

Source: patent publication US20260364184A1, “COMPOUND BASED ON OXOISOINDOLINYL-SUBSTITUTED TETRAHYDROPYRIMIDINE-DIONE AND USE THEREOF” (GLUETACS THERAPEUTICS (SHANGHAI) CO., LTD., priority 2023, published 2026)
